# In patent US12052991B2, “Substituted pyridinyloxybenzenes and salts thereof and use thereof as herbicidal agents” (Bayer Aktiengesellschaft, priority 2018, dated 2024):
# Columns and labels:
# Format in all cases: in vivo
# [1] = system: Digitaria sanguinalis (DIGSA); test: Herbicidal pre-emergence action, test C (Table C10); conditions: dosage 1280 g/ha; visual scoring after about 3 weeks; 100% = plants have died, 0% = like control plants
# Outline: (§1)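 Visual percentage damage relative to untreated pots (0% = like control, 100% = dead) was rated roughly 3 weeks after pre-emergence treatment in the greenhouse. Sandy loam pots were sown with weed seeds and covered with soil. The surface was sprayed with WP or EC formulations plus 0.5% additive at 600 L/ha, delivering 1280 or 320 g/ha.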
# Stellaria media (STEME) [2] = test: Herbicidal post-emergence action (Table B8); conditions: visual rating about 3 weeks after treatment, 100% = plants have died, 0% = like control plants
# Outline: (§2)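 Activity was scored visually against untreated plants roughly 3 weeks after treatment, 0% meaning like control and 100% plant death. Application was post-emergence onto green parts at the one-leaf stage, as aqueous suspension/emulsion with 0.5% additive, 600 l/ha, delivering 1280 or 320 g/ha to greenhouse plants in sandy loam.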
# [3] = system: harmful plants ABUTH, AMARE, ECHCG, LOLRI, MATIN, POAAN, SETVI, STEME, ALOMY, DIGSA, KCHSC and VERPE; test: Herbicidal pre-emergence action (test C), summary of Tables C1-C12; conditions: application rate of 1280 or 320 g of active ingredient per hectare; summary in words
# Outline: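 Visual % damage versus untreated plants (0% = like control, 100% = died) was scored after about 3 weeks in the greenhouse. Before emergence, seeds sown in sandy loam got a soil-surface spray of compound as WP or EC plus 0.5% additive, using 600 L/ha water at rates of 1280 or 320 g/ha.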
# Bassia scoparia (KCHSC) [4] = test: Herbicidal pre-emergence action, test C (Table C11); conditions: dosage 1280 g/ha, visual scoring vs untreated controls
# From the text: Seeds of mono- and dicotyledonous weed plants were placed in plastic pots in sandy loam soil (doubly sown with one species each of mono- or dicotyledonous weed plants per pot) and covered with soil. The compounds of the invention, formulated in the form of wettable powders (WP) or as emulsion concentrates (EC), were then applied onto the surface of the covering soil as aqueous suspension or emulsion with addition of 0.5% additive at a water application rate of 600 liters per hectare (converted). After the treatment, the pots were placed in a greenhouse and kept under good growth conditions for the test plants. After about 3 weeks, the effect of the preparations was scored visually in comparison with untreated controls as percentages. For example, 100% activity=the plants have died, 0% activity=like control plants. Tables C1 to C12 below show the effects of selected compounds of the general formula (I) according to Table 1 on various harmful plants and an application rate corresponding to 1280 or 320 g/ha, which were obtained by the experimental procedure mentioned above.
# [5] = system: Amaranthus retroflexus (AMARE); test: Herbicidal post-emergence action (Table B6); conditions: visual rating about 3 weeks after treatment, 100% = plants have died, 0% = like control plants
# Outline: as §2
# Veronica persica (VERPE) [6] = test: Herbicidal pre-emergence action, test C (Table C12); conditions: visual scoring vs untreated controls
# Outline: as §1
# Stellaria media (STEME) [7] = test: Herbicidal pre-emergence action, test C (Table C8); conditions: visual scoring after about 3 weeks, 100% = plants have died, 0% = like control plants
# Outline: as §1
# Poa annua (POAAN) [8] = test: Herbicidal post-emergence action (Table B3); conditions: rated visually after about 3 weeks, 100% = plants have died, 0% = like control plants
# Outline: as §2
# [9] = system: harmful plants ABUTH, AMARE, ECHCG, LOLRI, MATIN, POAAN, SETVI, STEME, ALOMY, DIGSA, KCHSC and VERPE; test: Herbicidal post-emergence action, summary of Tables B1-B12; conditions: application rate of 1280 or 320 g of active ingredient per hectare; summary in words
# Outline: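 Activity scored by eye roughly 3 weeks post-treatment against untreated plants, from 0% (no effect) to 100% (plants dead). Application rates were 1280 or 320 g/ha, as aqueous WP/EC spray plus 0.5% additive at 600 L/ha, onto one-leaf-stage weeds grown 2–3 weeks in sandy loam.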
# Veronica persica (VERPE) [10] = test: Herbicidal post-emergence action (Table B12); conditions: visual rating about 3 weeks after treatment, 100% = plants have died, 0% = like control plants
# Outline: as §2
# Bassia scoparia (KCHSC) [11] = test: Herbicidal post-emergence action (Table B11); conditions: visual rating about 3 weeks after treatment, 100% = plants have died, 0% = like control plants
# Outline: as §2
# [12] = system: Abutilon theophrasti (ABUTH); test: Herbicidal post-emergence action (Table B5); conditions: rated visually after about 3 weeks, 100% = plants have died, 0% = like control plants
# Outline: as §2
# Poa annua (POAAN) [13] = test: Herbicidal pre-emergence action, test C (Table C3); conditions: visual scoring after about 3 weeks, 100% = plants have died, 0% = like control plants
# Outline: as §1
# [14] = system: Amaranthus retroflexus (AMARE); test: Herbicidal pre-emergence action, test C (Table C6); conditions: visual scoring after about 3 weeks, 100% = plants have died, 0% = like control plants
# Outline: as §1
# Setaria viridis (SETVI) = test: Herbicidal pre-emergence action, test C (Table C4); conditions: dosage 1280 g/ha; visual scoring after about 3 weeks; 100% = plants have died, 0% = like control plants
# Outline: as §1
compound,measurement,setting,value
Fc1cccnc1Oc1ccccc1-c1cc(C(F)F)no1 [Example 1-47],Pre-emergence action against Digitaria sanguinalis (DIGSA),[1],90%
same,Post-emergence action against Stellaria media (STEME),Stellaria media (STEME) [2]; dosage 320 g/ha,100%
same,Post-emergence action against Stellaria media (STEME),Stellaria media (STEME) [2]; dosage 1280 g/ha,100%
same,herbicidal activity against the harmful plants of Tables C1-C12 in pre-emergence treatment,[3],very good herbicidal activity
same,Pre-emergence action against Bassia scoparia (KCHSC),Bassia scoparia (KCHSC) [4],90%
same,Post-emergence action against Amaranthus retroflexus (AMARE),[5]; dosage 320 g/ha,90%
same,Post-emergence action against Amaranthus retroflexus (AMARE),[5]; dosage 1280 g/ha,100%
same,Pre-emergence action against Veronica persica (VERPE),Veronica persica (VERPE) [6]; dosage 320 g/ha,90%
same,Pre-emergence action against Veronica persica (VERPE),Veronica persica (VERPE) [6]; dosage 1280 g/ha,100%
same,Pre-emergence action against Stellaria media (STEME),Stellaria media (STEME) [7]; dosage 320 g/ha,100%
same,Pre-emergence action against Stellaria media (STEME),Stellaria media (STEME) [7]; dosage 1280 g/ha,100%
same,Post-emergence action against Poa annua (POAAN),Poa annua (POAAN) [8]; 320 g/ha,100%
same,Post-emergence action against Poa annua (POAAN),Poa annua (POAAN) [8]; 1280 g/ha,100%
same,herbicidal activity against the harmful plants of Tables B1-B12 in post-emergence treatment,[9],very good herbicidal activity
same,Post-emergence action against Veronica persica (VERPE),Veronica persica (VERPE) [10]; dosage 320 g/ha,100%
same,Post-emergence action against Veronica persica (VERPE),Veronica persica (VERPE) [10]; dosage 1280 g/ha,100%
same,Post-emergence action against Bassia scoparia (KCHSC),Bassia scoparia (KCHSC) [11]; dosage 320 g/ha,90%
same,Post-emergence action against Bassia scoparia (KCHSC),Bassia scoparia (KCHSC) [11]; dosage 1280 g/ha,90%
same,Post-emergence action against Abutilon theophrasti (ABUTH),[12]; 320 g/ha,90%
same,Post-emergence action against Abutilon theophrasti (ABUTH),[12]; 1280 g/ha,100%
same,Pre-emergence action against Poa annua (POAAN),Poa annua (POAAN) [13]; dosage 320 g/ha,100%
same,Pre-emergence action against Poa annua (POAAN),Poa annua (POAAN) [13]; dosage 1280 g/ha,100%
same,Pre-emergence action against Amaranthus retroflexus (AMARE),[14]; dosage 320 g/ha,100%
same,Pre-emergence action against Amaranthus retroflexus (AMARE),[14]; dosage 1280 g/ha,100%
same,Pre-emergence action against Setaria viridis (SETVI),Setaria viridis (SETVI),90%
